What was measured:
CDK9 = CDK9 (Homo sapiens, UniProt P50750); assay: CDK9 kinase activity inhibition (ADP-Glo); format: biochemical; details: 10 μM ATP, 2 h at room temperature
Description: (§1) CDK9 kinase was manufactured by the company or commercially available. CDK1, CDK2 and CDK7 were purchased from Carna Biosciences, Inc. ADP-Glo™ kit was purchased from Promega Corporation. Dithiothreitol (DTT), Tween-20, dimethylsulfoxide (DMSO), bovine serum albumin (BSA) and Tris base were obtained from Sigma at the available highest level of purity.
(§2) General procedures for CDK inhibition determination: The determination was performed in a buffer consisting of 50 μM DTT, 0.1% BSA, 40 mM Tris-HCl pH=7.5 and 20 mM MgCl2. The compound dissolved in DMSO and CDK enzymes were diluted with the buffer. 1 μL of the compound solution in 5% DMSO and 2 μL of the CDK enzyme solution were added to a white low-volume 384-well microtiter plate and incubated for 20 min at room temperature. Ultra pure ATP and the substrate polypeptide (purchased from GenScript Biotech Corporation) were diluted together into the buffer and added to a mixed solution of the compound and the enzyme, 2 μL per well. They were incubated for 2 h at room temperature.
(§3) After the reaction was completed, 5 μL of ADP-Glo™ reagent was added to each well and incubated for 40 min at room temperature, and then 10 μL of test reagent was added to each well and incubated for 30 mi at room temperature. Chemical luminescence values were measured by using a Tecan (Männedorf, Switzerland) multifunctional plate reader Spark for plate reading. The IC50 value of the inhibitor was obtained by fitting the chemical luminescence intensity ratio in the S-shaped dosage reaction curve using Prism 7 (La Jolla, 15 CA) relative to the concentration of the inhibitor.

CDK2 = biological target: T1, CDK2 (Homo sapiens, UniProt P24941); assay: CDK2 kinase activity inhibition (ADP-Glo); format: biochemical; details: 10 μM ATP, 2 h at room temperature
T1 construct: purchased Carna Biosciences, Inc
Description: as §1, §2, §3

CDK7 = biological target: T2, CDK7 (Homo sapiens, UniProt P50613); assay: CDK7 kinase activity inhibition (ADP-Glo); format: biochemical; details: 10 μM ATP, 2 h at room temperature
T2 construct: purchased Carna Biosciences, Inc
T2 sequence (P50613 whole entry): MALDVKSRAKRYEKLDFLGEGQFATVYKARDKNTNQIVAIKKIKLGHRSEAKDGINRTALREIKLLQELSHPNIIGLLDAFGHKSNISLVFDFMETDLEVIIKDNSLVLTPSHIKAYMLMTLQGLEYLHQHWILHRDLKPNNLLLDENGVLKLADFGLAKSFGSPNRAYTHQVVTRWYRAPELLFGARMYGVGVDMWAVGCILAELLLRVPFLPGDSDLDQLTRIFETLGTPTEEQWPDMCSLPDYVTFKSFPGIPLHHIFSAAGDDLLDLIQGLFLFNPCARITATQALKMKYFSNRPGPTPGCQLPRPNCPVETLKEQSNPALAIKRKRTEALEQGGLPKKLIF
T2 sequence (P51946 whole entry partner): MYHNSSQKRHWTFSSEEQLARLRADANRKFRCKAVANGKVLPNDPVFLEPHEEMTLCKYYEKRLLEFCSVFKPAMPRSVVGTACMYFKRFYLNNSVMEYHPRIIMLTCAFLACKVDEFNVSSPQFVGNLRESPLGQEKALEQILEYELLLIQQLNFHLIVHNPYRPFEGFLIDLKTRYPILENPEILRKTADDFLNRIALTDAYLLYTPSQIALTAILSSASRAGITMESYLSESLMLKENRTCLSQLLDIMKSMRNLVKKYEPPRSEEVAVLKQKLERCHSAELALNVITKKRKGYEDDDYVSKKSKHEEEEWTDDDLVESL
T2 sequence (P51948 whole entry partner): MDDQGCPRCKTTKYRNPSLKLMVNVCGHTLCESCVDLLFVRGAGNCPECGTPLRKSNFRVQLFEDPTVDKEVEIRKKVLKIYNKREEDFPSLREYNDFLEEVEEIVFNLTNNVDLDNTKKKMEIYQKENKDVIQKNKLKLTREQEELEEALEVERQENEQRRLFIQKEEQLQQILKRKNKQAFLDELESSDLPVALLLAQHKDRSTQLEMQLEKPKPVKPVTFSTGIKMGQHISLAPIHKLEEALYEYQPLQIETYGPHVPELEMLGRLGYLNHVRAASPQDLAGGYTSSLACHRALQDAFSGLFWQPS
Description: as §1, §2, §3

CDK1 = biological target: T3, CDK1 (Homo sapiens, UniProt P06493); assay: CDK1 kinase activity inhibition (ADP-Glo); format: biochemical; details: 50 μM ATP, 2 h at room temperature
T3 construct: purchased Carna Biosciences, Inc
T3 sequence (P06493 whole entry): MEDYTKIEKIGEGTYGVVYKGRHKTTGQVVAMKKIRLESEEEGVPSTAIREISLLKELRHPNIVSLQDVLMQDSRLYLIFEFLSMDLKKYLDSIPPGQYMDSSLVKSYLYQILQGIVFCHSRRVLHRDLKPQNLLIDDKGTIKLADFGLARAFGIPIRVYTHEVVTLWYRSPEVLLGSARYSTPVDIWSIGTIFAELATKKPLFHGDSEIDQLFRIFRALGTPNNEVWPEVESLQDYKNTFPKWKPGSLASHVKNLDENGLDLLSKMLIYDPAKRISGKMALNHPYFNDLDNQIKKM
T3 sequence (P14635 whole entry partner): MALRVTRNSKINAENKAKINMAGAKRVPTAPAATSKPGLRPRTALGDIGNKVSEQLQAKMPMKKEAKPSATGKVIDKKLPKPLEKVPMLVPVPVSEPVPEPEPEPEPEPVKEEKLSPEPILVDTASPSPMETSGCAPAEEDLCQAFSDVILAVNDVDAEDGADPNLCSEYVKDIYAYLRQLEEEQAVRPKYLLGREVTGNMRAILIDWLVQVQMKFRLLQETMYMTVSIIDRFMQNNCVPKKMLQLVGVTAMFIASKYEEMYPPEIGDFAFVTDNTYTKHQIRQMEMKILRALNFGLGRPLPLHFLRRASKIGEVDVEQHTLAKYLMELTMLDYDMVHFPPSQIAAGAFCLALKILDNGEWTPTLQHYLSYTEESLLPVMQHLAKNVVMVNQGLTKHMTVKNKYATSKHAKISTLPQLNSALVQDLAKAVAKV
Description: as §1, §2, §3

MOLM-13 cells = assay: Tumor cell proliferation inhibition experiment (CellTiter-Glo); format: cell-based; details: Homo sapiens; acute myeloid leukemia cell line MOLM-13; 16 h incubation; CellTiter-Glo; read-out: MOLM-13 (nM) IC50, cell proliferation inhibition
Source text: An acute myeloid leukemia (AML) cell line (MOLM-13) was purchased from NANJING COBIOER BIOSCIENCES CO., LTD. An RPMI1640 medium and a penicillin-streptomycin double-antibody were purchased from ThermoFisher (Waltham, MA, USA). Certified fetal bovine serum (FBS) was purchased from Biological Industries (Israel). A Corning 384-well cell culture plate was purchased from CORNING (USA). Cell-Titer Glo® was purchased from Promega Corporation (Madison, WI, USA).
To evaluate the ability of the synthetic compound to inhibit the proliferation of MOLM-13 cells, MOLM-13 cells at an exponential growth stage were inoculated at a density of 500,000 cell/mL in the RPMI1640 medium containing 20% bovine serum and 1% penicillin-streptomycin double-antibody, and the 384-well plate contained 20 μL per well and placed overnight in an 37° C., 5% CO2 incubator. Compound powder was dissolved in DMSO to prepare a storage mother liquor with a concentration of 2 mM, and 12 dilutions with three-fold gradient concentrations were further prepared. 1 μL of gradient-diluted DMSO solution was added to 99 μL of cell culture medium (the final maximum concentration of the compound in the assay was 10 uM and the final concentration of DMSO was 0.5%). 20 μL of compound solution in the medium was added at gradients to each cell-coated test well of the 384-well plate. After the compound solution was added, the 384-well plate was incubated for 16 h in a 37° C., 5% CO2 incubator. Cell viability was determined by quantifying ATPs present in test wells using the CellTiter-Glo kit from Promega (Madison, WI, USA). After 20 minutes of incubation, readings were obtained under a chemical luminescence procedure using Tecan's Spark multifunctional plate reader. The concentration (IC50 value) of the compound at which the cell survival rate was inhibited by 50% was determined using an S-shaped dosage response model (variable slope, four parameters) in Prism 7 (LaJolla, CA).

Sequence of CDK9 (P50750 whole entry): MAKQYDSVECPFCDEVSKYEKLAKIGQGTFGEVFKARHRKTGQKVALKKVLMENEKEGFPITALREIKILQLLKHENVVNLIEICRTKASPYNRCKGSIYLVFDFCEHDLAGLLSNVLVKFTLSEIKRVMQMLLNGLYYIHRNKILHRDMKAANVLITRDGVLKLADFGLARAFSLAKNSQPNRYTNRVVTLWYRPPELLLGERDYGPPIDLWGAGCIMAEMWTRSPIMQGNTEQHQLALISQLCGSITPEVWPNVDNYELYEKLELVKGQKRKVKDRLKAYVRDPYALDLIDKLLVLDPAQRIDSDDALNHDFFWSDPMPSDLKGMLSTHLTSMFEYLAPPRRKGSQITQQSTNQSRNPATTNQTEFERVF
Sequence of CDK9 (O60563 whole entry partner): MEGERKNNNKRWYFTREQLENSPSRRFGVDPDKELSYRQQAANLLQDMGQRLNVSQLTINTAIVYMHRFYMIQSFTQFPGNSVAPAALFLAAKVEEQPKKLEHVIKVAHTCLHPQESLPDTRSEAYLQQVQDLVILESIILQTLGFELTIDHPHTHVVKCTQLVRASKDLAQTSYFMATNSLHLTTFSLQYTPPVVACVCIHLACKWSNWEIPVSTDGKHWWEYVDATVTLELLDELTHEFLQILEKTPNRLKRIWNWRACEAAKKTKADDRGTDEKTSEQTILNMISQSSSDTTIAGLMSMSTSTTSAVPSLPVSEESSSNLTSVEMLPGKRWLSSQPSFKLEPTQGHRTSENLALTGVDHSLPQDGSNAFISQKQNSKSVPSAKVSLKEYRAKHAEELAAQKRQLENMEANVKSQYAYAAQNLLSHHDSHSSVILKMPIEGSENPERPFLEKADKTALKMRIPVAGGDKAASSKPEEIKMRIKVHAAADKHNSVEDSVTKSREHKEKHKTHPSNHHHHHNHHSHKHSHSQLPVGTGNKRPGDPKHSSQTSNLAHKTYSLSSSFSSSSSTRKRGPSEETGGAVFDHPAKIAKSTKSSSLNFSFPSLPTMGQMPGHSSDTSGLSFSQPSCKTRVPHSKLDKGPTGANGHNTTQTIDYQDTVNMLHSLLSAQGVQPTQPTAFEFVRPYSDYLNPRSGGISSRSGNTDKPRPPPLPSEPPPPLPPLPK

Row | Structure (SMILES) | IC50 (CDK9) [nM] | IC50 (CDK2) [nM] | IC50 (CDK7) [nM] | IC50 (CDK1) [nM] | IC50 (MOLM-13 cells) [nM]
1 | CC(=O)NC[C@H]1CCC(F)(F)CN1C(=O)c1nc(Nc2cc(C)ccn2)ccc1C [Compound 8, (R)—N-((5,5-difluoro-1-(3-methyl-6-((4-methylpyridin-2-yl)amino)pyridine-2-carbonyl)piperidin-2-yl)methyl)acetamide] | 8.9 | 2590 | 8380 | 8730 | –
2 | COc1ccnc(Nc2ccc(C)c(C(=O)N3CC(F)(F)CC[C@@H]3CNC(C)=O)n2)c1 [Compound 9, (R)—N-((5,5-difluoro-1-(6-((4-methoxypyridin-2-yl)amino)-3-methylpyridine-2-carbonyl)piperidin-2-yl)methyl)acetamide] | 7.8 | 8450 | > 10000 | > 10000 | –
3 | COc1cc(Nc2ccc(C)c(C(=O)N3CC(F)(F)CC[C@@H]3CNC(C)=O)n2)ncc1Cl [Compound 10, (R)—N-((1-(6-((5-chloro-4-methoxypyridin-2-yl)amino)-3-methylpyridine-2-carbonyl)-5,5-difluoropiperidin-2-yl)methyl)acetamide] | 361 | > 10000 | 9860 | > 10000 | –
4 | CC(=O)NC[C@H]1CCC(F)(F)CN1C(=O)c1nc(Nc2cc(C3CC(F)(F)C3)[nH]n2)ccc1C [Compound 15, (R)—N-((1-(6-((5-(3,3-difluorocyclobutyl)-1H-pyrazol-3-yl)amino)-3-methylpyridine-2-carbonyl)-5,5-difluoropiperidin-2-yl)methyl)acetamide] | 4.3 | 12 | > 10000 | 503 | –
5 | CC(=O)NC[C@H]1CCC(F)(F)CN1C(=O)c1nc(Nc2cc(C(C)(C)C)ccn2)ccc1C [Compound 17, (R)—N-((1-(6-((4-(t-butyl)pyridin-2-yl)amino)-3-methylpyridine-2-carbonyl)-5,5-difluoropiperidin-2-yl)methyl)acetamide] | 19.2 | 2870 | – | > 10000 | –
6 | CC(=O)NC[C@H]1CCC(F)(F)CN1C(=O)c1nc(Nc2ccccn2)ccc1C [Compound 22, (R)—N-((5,5-difluoro-1-(3-methyl-6-(pyridin-2-ylamino)pyridine-2-carbonyl)piperidin-2-yl)methyl)acetamide] | 35 | > 10000 | – | > 10000 | –
7 | CC(=O)NC[C@H]1CCC(F)(F)CN1C(=O)c1nc(Nc2cc(CF)ccn2)ccc1C [Compound 28, (R)—N-((5,5-difluoro-1-(6-((4-(fluoromethyl)pyridin-2-yl)amino)-3-methylpyridine-2-carbonyl)piperidin-2-yl)methyl)acetamide] | 9.4 | 1260 | – | – | 133
8 | Cc1ccc(Nc2cc(C#N)ccn2)nc1C(=O)N1CC(F)(F)CC[C@@H]1CNC(=O)OC(C)(C)C [Compound 31, (R)-((1-(6-((4-cyanopyridin-2-yl)amino)-3-methylpyridine-2-carbonyl)-5,5-difluoropiperidin-2-yl)methyl)t-butyl carbamate] | 3.7 | 180 | 7030 | 1470 | –
9 | Cc1ccc(Nc2cc(OC(F)(F)F)ccn2)nc1C(=O)N1CC(F)(F)CC[C@@H]1CNS(C)(=O)=O [Compound 32, (R)—N-((5,5-difluoro-1-(3-methyl-6-((4-(trifluoromethoxy)pyridin-2-yl)amino)pyridine-2-carbonyl)piperidin-2-yl)methyl)methanesulfonamide] | 11.6 | 305 | 780 | 1390 | –
10 | Cc1ccc(Nc2cc(OC(F)(F)F)ccn2)nc1C(=O)N1CC(F)(F)CC[C@@H]1CNC(=O)OC(C)(C)C [Compound 33, (R)-((5,5-difluoro-1-(3-methyl-6-((4-(trifluoromethoxy)pyridin-2-yl)amino)pyridine-2-carbonyl)piperidin-2-yl)methyl)t-butyl carbamate] | 38 | 1420 | > 10000 | – | –
11 | CCOc1ccnc(Nc2ccc(C)c(C(=O)N3CC(F)(F)CC[C@@H]3CNC(C)=O)n2)c1 [Compound 35, (R)—N-((1-(6-((4-ethoxypyridin-2-yl)amino)-3-methylpyridine-2-carbonyl)-5,5-difluoropiperidin-2-yl)methyl)acetamide] | 5 | 6840 | > 10000 | > 10000 | –
12 | CCOc1ccnc(Nc2ccc(C)c(C(=O)N3CC(F)(F)CC[C@@H]3CNC(=O)OC(C)(C)C)n2)c1 [Compound 36, (R)-((1-(6-((4-ethoxypyridin-2-yl)amino)-3-methylpyridine-2-carbonyl)-5,5-difluoropiperidin-2-yl)methyl)t-butyl carbamate] | 231 | > 10000 | > 10000 | – | –
13 | Cc1ccc(Nc2cc(OC(F)(F)F)ccn2)nc1C(=O)N1CCCC[C@@H]1CNC(=O)OC(C)(C)C [Compound 41, (R)-((1-(3-methyl-6-((4-(trifluoromethoxy)pyridin-2-yl)amino)pyridine-2-carbonyl)piperidin-2-yl)methyl)t-butyl carbamate] | 245 | 9260 | > 10000 | – | –
14 | Cc1ccc(Nc2cc(OC(F)(F)F)ccn2)nc1C(=O)N1CCCN2CCCC2C1 (stereo not shown) [Compound 46, (Hexahydro-1H-pyrrolo[1,2-a][1,4]diazepin-2-2(3H)-yl)(3-methyl-6-((4-(trifluoromethoxy)pyridin-2-yl)amino)pyridin-2-yl)methanone] | 86.9 | 770 | – | 4120 | –
15 | Cc1ccc(Nc2cc(OC(F)(F)F)ccn2)nc1C(=O)N1CC(F)(F)CCC1C(=O)N1CCCC1 (stereo not shown) [Compound 47, (5,5-Difluoro-1-(3-methyl-6-((4-(trifluoromethoxy)pyridin-2-yl)amino)pyridine-2-carbonyl)piperidin-2-yl)(pyrrolidin-1-yl)methanone] | 119 | 844 | – | – | 938
16 | Cc1ccc(Nc2cc(OC(F)(F)F)ccn2)nc1C(=O)N1CC(F)(F)CC[C@@H]1CN1CCCC1=O [Compound 48, (R)-1-((5,5-difluoro-1-(3-methyl-6-((4-(trifluoromethoxy)pyridin-2-yl)amino)pyridine-2-carbonyl)piperidin-2-yl)methyl)pyrrolidinone-2-one] | 16.4 | 2870 | – | – | 683
17 | Cc1ccc(Nc2cc(OC(F)(F)F)ccn2)nc1C(=O)N1CC(F)(F)CC[C@@H]1CNC(=O)C1CC1 [Compound 51, (R)—N-((5,5-difluoro-1-(3-methyl-6-((4-(trifluoromethoxy)pyridin-2-yl)amino)pyridine-2-carbonyl)piperidin-2-yl)methyl)cyclopropanecarboxamide] | 7.7 | 1270 | – | – | 112
18 | CCOc1ccnc(Nc2ccc(C)c(C(=O)N3CC(F)(F)CC[C@@H]3CNC(=O)OC)n2)c1 [Compound 53, (R)-((1-(6-((4-ethoxypyridin-2-yl)amino)-3-methylpyridine-2-carbonyl)-5,5-difluoropiperidin-2-yl)methyl)methyl carbamate] | 19.7 | > 10000 | – | > 10000 | –
19 | CC(=O)NC[C@H]1CCC(F)(F)CN1C(=O)c1cc(Nc2cc(OC(F)(F)F)ccn2)ccc1C [Compound 68, (R)—N-((5,5-difluoro-1-(2-methyl-5-((4-(trifluoromethoxy)pyridin-2-yl)amino)benzoyl)piperidin-2-yl)methyl)acetamide] | 265 | > 10000 | – | > 10000 | –

Source: US12729192B2, “CDK9 inhibitor and use thereof” (PHARMABLOCK SCIENCES (NANJING), INC., priority 2020, dated 2026)
